From ChEMBL document CHEMBL1131947, “Syntheses and biological activities of bis(3-indolyl)thiazoles, analogues of marine bis(indole)alkaloid nortopsentins” (1999) come the findings set out here.

Common to all, as to type: functional
The subject of one test is HCT-15. Put plainly: In vitro growth inhibitory activity against human HCT-15 cancer cell line.
For a further test, the system named is K562. Put plainly: In vitro growth inhibitory activity against human K-562 cancer cell line.
The test system of another test is MOLT-4. Put plainly: In vitro growth inhibitory activity against human MOLT-4 cancer cell line.
A further test has as its system MCF7. The test can be described thus: In vitro growth inhibitory activity against human MCF-7 cancer cell line.
Another test concerns MDA-N. Put plainly: In vitro growth inhibitory activity against human MDA-N cancer MDA-N cell line.
For the next test, the system named is NCI-H23. Put plainly: In vitro growth inhibitory activity against human NCI-H23 cancer cell line.
The next test has as its system SR. The test can be described thus: In vitro growth inhibitory activity against human SR cancer cell line.
In another test the test system is SF-295. Put plainly: In vitro growth inhibitory activity against human SF-295 cancer cell line.

On to `Brc1ccc2c(-c3nc(-c4c[nH]c5ccccc45)cs3)c[nH]c2c1`, for which the 50% growth inhibitory concentration (GI50) in the test with HCT-15 is 17.8 µM; in the test with K562, 5.61 µM; with MOLT-4, 31.2 µM; in the test on MCF7, 27.2 µM; in the test with MDA-N, 31.5 µM; in the test with NCI-H23, 25.8 µM. Besides, the GI50 in the test with SR amounted to 12.2 µM; with SF-295, 9.23 µM.
As to `Brc1ccc2c(-c3csc(-c4c[nH]c5ccccc45)n3)c[nH]c2c1`, the GI50 in the test with HCT-15 came to 15.2 µM; in the test with K562 it was 18.8 µM; with MOLT-4 it was 19.9 µM; in the test on MCF7, 16.7 µM; in the test with MDA-N, 19.2 µM; in the test on NCI-H23, 14.5 µM. Further, the GI50 with SR is 6.36 µM; with SF-295 it was 14.6 µM.
`c1ccc2c(-c3csc(-c4c[nH]c5ccccc45)n3)c[nH]c2c1`: the concentration for 50% growth inhibition (GI50) with HCT-15 was more than 100 µM; in the test on K562 it was 3.27 µM; in the test on MOLT-4 it was 5.31 µM; in the test with MCF7 it was more than 100 µM; in the test on MDA-N, 83 µM; in the test with NCI-H23, more than 100 µM. The results for the GI50 in the test on SR and in the test with SF-295 were 1.77 µM and 33.6 µM, respectively.
Take `Brc1ccc2c(-c3csc(-c4c[nH]c5cc(Br)ccc45)n3)c[nH]c2c1`: the concentration for 50% growth inhibition (GI50) is 8.5 µM with HCT-15; 4.69 µM in the test with K562; 5.8 µM in the test on MOLT-4; 6.46 µM in the test on MCF7; 2.94 µM in the test with MDA-N; 14.1 µM with NCI-H23. Besides, the GI50 in the test on SR was found to be 3.4 µM; in the test with SF-295, 4.81 µM.
